Measured values from patent publication US20120015090A1, “READILY WATER-SOLUBLE MYRICITRIN COMPOSITION” (SAN-EI GEN F.F.I., INC., priority 2009, published 2012).

How the values were obtained:
Format in all cases: physicochemical
[1] = Evaluation of MY composition solubility in water (Experiment Example 1)
Protocol: The MY and γ-CD were used in the proportions (mole ratios) presented in Table 1, and […] different powdery MY compositions (Samples 1 to 22) were prepared according to the method of Example 1.
The powdery MY composition (Samples 1 to 22) or a control MY (MY itself) was added to water (20 ml) in a 100-ml Erlenmeyer flask while stirring. The samples were added until they could not be dissolved further, and formed deposits. Each solution was shaken (Bio-Shaker BR-3000LF, 160 rpm, amplitude=40 mm, Taitec Co., Ltd.) at 25° C. for 40 hours, and centrifuged at 9,000 rpm for 10 min to collect the supernatant. The supernatant was appropriately diluted with a 0.1% phosphoric acid aqueous solution, and absorbance (346 nm) was measured.
1) MY (50 mg) was accurately weighed, and dissolved in methanol to make the volume precisely 100 ml. 2) The solution was appropriately diluted with a 0.1% phosphoric acid aqueous solution to prepare MY solutions of 0.0001, 0.0005, 0.001, 0.005, and 0.01 mg/ml concentrations. 3) The absorbance of the standard solution at a wavelength of maximum absorption was measured with a spectrophotometer. 4) A standard curve was created based on the content of MY in the MY solution, and the measured absorbance value.

[2] = Evaluation of the solubility of other flavonoids in water (Experiment Example 2)
Protocol: The solubility (mg/ml) of each composition in water in terms of the flavonoid was then determined according to the method of Experiment Example 1. The solubility (mg/ml) of the flavonoid itself in water was also determined as a control, and the solubility (fold) was calculated from the relative ratio of the two.

[3] = Evaluation of water solubility with α- and β-cyclodextrins (Reference Experiment Example)
Protocol: Evaluation of Water Solubility with α- and β-Cyclodextrins Instead of γ-CD, α-cyclodextrin (α-CD) and β-cyclodextrin (β-CD) (both from Nihon Shokuhin Kako Co., Ltd.) were used to prepare MY inclusions, and the solubility of the compositions in water was evaluated.
Specifically, an MY composition containing 3 moles of α-CD (Reference Sample 1), or an MY composition containing 3 moles of β-CD (Reference Sample 2) per mole of MY were prepared according to the method of Example 1, and the solubility of each composition in water was determined as an MY solubility (mg/ml) according to the method of Experiment Example 1. The solubility (mg/ml) of the MY itself was also determined as a control, and the solubility (fold) was calculated from the relative ratio of the two.

[4] = Evaluation of preservation stability, presence or absence of deposits in acid and sugar solutions (Experiment Example 3); parameters: key: +: the presence of deposits; −: the absence of deposits; x: no dissolution in the acid and sugar solution; details: 210 days
Protocol: MY and γ-CD were used in the 1:1 proportion (mole ratio) to prepare a powder composition (sample 1) according to the method of Example 1. […] Each solution was hot-packed in a 100-ml glass vial (93° C.). The drinks so prepared were allowed to cool, and placed under 50° C., room temperature (25±2° C.), and low-temperature (5° C.) conditions for 210 days. The presence or absence of deposits was then checked by visual inspection. […] The drinks so prepared were allowed to cool, and placed under 50° C., room temperature (25±2° C.), and low-temperature (5° C.) conditions for 210 days. The presence or absence of deposits was then observed. In the table, the symbol “+” means the presence of deposits, and “−” the absence of deposits. The symbol “x” means no dissolution in the acid and sugar solution.

Compound: C[C@H]1O[C@@H](Oc2c(-c3cc(O)c(O)c(O)c3)oc3cc(O)cc(O)c3c2=O)[C@@H](O)[C@@H](O)[C@@H]1O [MY, myricitrin]
- Solubility (fold) ([1]; relative to solubility of MY itself (non-inclusion) = 1, 25° C., 40 hours): 1 fold
- Solubility (in terms of myricitrin, mg/ml) ([1]; shaken at 25° C. for 40 hours, MY:γ-CD = 1:X per sample): 0.12 mg/mL
- Solubility (fold) (in terms of flavonoids) ([2]; Flavonoid:γ-CD = 1:0 (mole ratio), flavonoid itself, reference): 1 fold
- Solubility (fold) (in terms of flavonoids) ([2]; Flavonoid:γ-CD = 1:1 (mole ratio)): 157.8 fold
- Solubility (fold) (in terms of flavonoids) ([2]; Flavonoid:γ-CD = 1:3 (mole ratio)): 256.2 fold
- Solubility (fold) (in terms of flavonoids) ([2]; Flavonoid:γ-CD = 1:5 (mole ratio)): 187.4 fold
- Solubility (fold) (in terms of flavonoids) ([2]; Flavonoid:γ-CD = 1:10 (mole ratio)): 49.3 fold
- Solubility (fold) (in terms of flavonoids) ([2]; Flavonoid:γ-CD = 1:15 (mole ratio)): 59.9 fold
- Solubility (fold) (in terms of flavonoids) ([2]; Flavonoid:γ-CD = 1:20 (mole ratio)): 46.3 fold
- Solubility (fold) ([3]; relative to MY alone = 1): 1 fold
- Solubility (in terms of myricitrin, mg/ml) ([3]; water, method of Experiment Example 1, MY:CD = 1:3 mole ratio): 0.10 mg/mL
- presence or absence of deposits ([4]; pH 3, 50° C., flavonoid concentration 0.05%): +
- presence or absence of deposits ([4]; pH 3, 50° C., flavonoid concentration 0.10%): +
- presence or absence of deposits ([4]; pH 3, refrigerated (5° C.), flavonoid concentration 0.05%): +
- presence or absence of deposits ([4]; pH 3, refrigerated (5° C.), flavonoid concentration 0.10%): +
- presence or absence of deposits ([4]; pH 3, room temperature, flavonoid concentration 0.05%): +
- presence or absence of deposits ([4]; pH 3, room temperature, flavonoid concentration 0.10%): +
- presence or absence of deposits ([4]; pH 6, 50° C., flavonoid concentration 0.05%): −
- presence or absence of deposits ([4]; pH 6, 50° C., flavonoid concentration 0.10%): −
- presence or absence of deposits ([4]; pH 6, refrigerated (5° C.), flavonoid concentration 0.05%): +
- presence or absence of deposits ([4]; pH 6, refrigerated (5° C.), flavonoid concentration 0.10%): +
- presence or absence of deposits ([4]; pH 6, room temperature, flavonoid concentration 0.05%): +
- presence or absence of deposits ([4]; pH 6, room temperature, flavonoid concentration 0.10%): +
- presence or absence of deposits ([4]; pH 9, 50° C., flavonoid concentration 0.05%): −
- presence or absence of deposits ([4]; pH 9, 50° C., flavonoid concentration 0.10%): −
- presence or absence of deposits ([4]; pH 9, refrigerated (5° C.), flavonoid concentration 0.05%): −
- presence or absence of deposits ([4]; pH 9, refrigerated (5° C.), flavonoid concentration 0.10%): −
- presence or absence of deposits ([4]; pH 9, room temperature, flavonoid concentration 0.05%): −
- presence or absence of deposits ([4]; pH 9, room temperature, flavonoid concentration 0.10%): −
